In patent US11571423B2, “Small molecule modulators of human sting” (Curadev Pharma Limited, priority 2017, dated 2023):

Key:
[1] = target: hSTING(R232) (Homo sapiens, UniProt Q86WV6, H232R); assay: Luciferase reporter assay in HEK293T-hSTING-Luciferase cells, R232 (wild type) human STING; assay type: cell-based; conditions: 20 hr stimulation, read-out: R232 human activity (EC50 range)
Outline: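 After 20 hr compound stimulation of 5×10^5 cells, secreted luciferase in the supernatant was measured by luminescence; values are fold-induction over baseline and EC50. The line is a clonal HEK293T stably carrying a STING plasmid (pUNO-1) and a luciferase reporter under five tandem ISREs fused to an ISG54 promoter.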

[2] = target: cynomolgus monkey STING protein (Macaca fascicularis, UniProt A0A2R3XZA6); assay: Luciferase reporter assay, cynomolgus monkey STING overexpressed in HEK293T cells; assay type: cell-based; conditions: cynomolgus monkey STING overexpressed in HEK293T cells; read-out: Cynomolgus monkey STING activity (EC50 range)
Outline: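 HEK293T cells overexpressing cynomolgus STING with a secreted luciferase reporter were stimulated with compound for 20 hr. Supernatant reporter activity was then measured by Quanti-Luc luminescence, and EC50 values were derived.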

[3] = target: hSTING(H232) (Homo sapiens, UniProt Q86WV6); assay: Luciferase reporter assay in HEK293T-hSTING-Luciferase cells, H232/REF polymorph; assay type: cell-based; conditions: H232/REF polymorph of human STING, EC50 range class
Outline: (§1)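 HEK293T cells stably co-express the hSTING variant (hEF1-HTLV promoter) and an ISRE/ISG54 IRF-inducible luciferase reporter. Clones with minimal ligand-independent activation were used. Cells were stimulated with compounds for 20 hr, and secreted luciferase in the supernatant was read by luminescence to give EC50.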

[4] = target: hSTING(HAQ) (Homo sapiens, UniProt Q86WV6, G230A/H232R/R293Q/R71H); assay: Luciferase reporter assay in HEK293T-hSTING-Luciferase cells, HAQ polymorph; assay type: cell-based; conditions: HAQ polymorph of human STING, EC50 range class
Outline: as §1

[5] = test system: IRF pathway; assay: Reporter gene expression assay in THP1-Dual cells, IRF axis (secreted Lucia luciferase); assay type: cell-based, human; conditions: Homo sapiens, 20 hr stimulation, EC50 range class, read-out: THP-IRF activity
Outline: (§2)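 Human THP-1 monocyte-derived cells with two inducible reporters: 5×10^5 cells seeded and stimulated with compounds for 20 hr. SEAP (QUANTI-Blue) and Lucia luciferase (QUANTI-Luc) measured in supernatant; EC50 values reported as ranges.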

[6] = test system: NF-κB pathway; assay: Reporter gene expression assay in THP1-Dual cells, NFkB axis (secreted SEAP); assay type: cell-based, human; conditions: Homo sapiens, 20 hr stimulation, EC50 range class, read-out: THP-NFκB activity
Outline: as §2

Sequence of hSTING(HAQ) (Q86WV6 whole entry R71H/G230A/H232R/R293Q): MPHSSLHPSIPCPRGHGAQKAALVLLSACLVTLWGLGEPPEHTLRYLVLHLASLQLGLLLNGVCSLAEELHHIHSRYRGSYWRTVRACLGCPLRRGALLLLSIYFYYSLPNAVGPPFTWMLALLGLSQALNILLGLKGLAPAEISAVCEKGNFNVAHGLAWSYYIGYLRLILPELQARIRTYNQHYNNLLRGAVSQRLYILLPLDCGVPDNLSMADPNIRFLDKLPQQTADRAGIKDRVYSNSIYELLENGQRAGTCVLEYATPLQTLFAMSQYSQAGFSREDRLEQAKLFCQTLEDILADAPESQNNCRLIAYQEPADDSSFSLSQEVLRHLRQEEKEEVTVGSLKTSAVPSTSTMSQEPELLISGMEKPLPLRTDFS
Sequence of hSTING(H232) (Q86WV6 whole entry): as the sequence (Q86WV6 whole entry R71H/G230A/H232R/R293Q) above, with H71R, A230G, R232H, Q293R counted along it
Sequence of hSTING(R232) (Q86WV6 whole entry H232R, the tested form may be a part): as the sequence (Q86WV6 whole entry R71H/G230A/H232R/R293Q) above, with H71R, A230G, Q293R counted along it
Sequence of cynomolgus monkey STING protein (A0A2R3XZA6 entry or part of it): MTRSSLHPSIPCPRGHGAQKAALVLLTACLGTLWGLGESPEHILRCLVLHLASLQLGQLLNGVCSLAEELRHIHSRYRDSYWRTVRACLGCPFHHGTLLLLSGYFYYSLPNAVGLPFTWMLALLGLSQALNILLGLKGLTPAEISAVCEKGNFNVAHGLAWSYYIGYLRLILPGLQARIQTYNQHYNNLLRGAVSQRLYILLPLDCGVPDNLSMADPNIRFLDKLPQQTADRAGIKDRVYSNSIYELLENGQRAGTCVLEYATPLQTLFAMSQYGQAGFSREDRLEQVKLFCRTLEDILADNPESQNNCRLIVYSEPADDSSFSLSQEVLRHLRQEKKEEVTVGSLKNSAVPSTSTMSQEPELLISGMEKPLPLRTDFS

Q: Which results are given for `C[C@H]1c2ccc(C(=O)NCc3c(F)cc(F)cc3F)cc2N(Cc2c(Cl)ccc(F)c2F)C(=O)N1C` [Example 177, (S)-1-(6-chloro-2,3-difluorobenzyl)-3,4-dimethyl-2-oxo-N-(2,4,6-trifluorobenzyl)-1,2,3,4-tetrahydroquinazoline-7-carboxamide]?
A: EC50 [1]: < 1000 nM; EC50 [2]: < 1000 nM; EC50 [3]: < 1000 nM; EC50 [4]: < 1000 nM; EC50 [5]: < 1000 nM; EC50 [6]: < 1000 nM

Q: Which EC50 [1] does the source give for `C[C@H]1c2ccc(C(=O)NCc3c(F)cc(F)cc3F)cc2N(Cc2c(O)ccc(F)c2F)C(=O)N1C` [Example 242, (S)-1-(2,3-difluoro-6-hydroxybenzyl)-3,4-dimethyl-2-oxo-N-(2,4,6-trifluorobenzyl)-1,2,3,4-tetrahydroquinazoline-7-carboxamide] here?
A: < 1000 nM

Q: And the EC50 [2]?
A: < 1000 nM

Q: And the EC50 [3]?
A: < 1000 nM

Q: And the EC50 [4]?
A: < 1000 nM

Q: And the EC50 [5]?
A: < 1000 nM

Q: What about the EC50 [6] of the same molecule?
A: < 1000 nM

Q: Which results are given for `Cc1ncc(Cl)c(CN2C(=O)N(C)[C@@H](C)c3ccc(C(=O)NCc4c(F)cc(F)cc4F)cc32)c1F` [Example 77, (S)-1-((5-chloro-3-fluoro-2-methylpyridin-4-yl)methyl)-3,4-dimethyl-2-oxo-N-(2,4,6-trifluorobenzyl)-1,2,3,4-tetrahydroquinazoline-7-carboxamide]?
A: EC50 [1]: < 1000 nM; EC50 [2]: < 1000 nM; EC50 [3]: < 1000 nM; EC50 [4]: < 1000 nM; EC50 [5]: < 1000 nM; EC50 [6]: < 1000 nM

Q: Which EC50 [1] does the source give for `C[C@H]1c2ccc(C(=O)NCc3c(F)cc(F)cc3F)cc2N(Cc2c(F)ccc(O)c2Cl)C(=O)N1C` [Example 87, (S)-1-(2-Chloro-6-fluoro-3-hydroxybenzyl)-3,4-dimethyl-2-oxo-N-(2,4,6-trifluorobenzyl)-1,2,3,4-tetrahydroquinazoline-7-carboxamide] here?
A: < 1000 nM

Q: What about the EC50 [2] of the same molecule?
A: < 1000 nM

Q: What about the EC50 [3] of the same molecule?
A: < 1000 nM

Q: And the EC50 [4]?
A: < 1000 nM

Q: What about the EC50 [5] of the same molecule?
A: < 1000 nM

Q: And the EC50 [6]?
A: < 1000 nM

Q: How did the EC50 [1] turn out when `COc1ccc(F)c(F)c1CN1C(=O)N(C)[C@@H](C)c2ccc(C(=O)NCc3c(F)cc(F)cc3F)cc21` [Example 241, (S)-1-(2,3-difluoro-6-methoxybenzyl)-3,4-dimethyl-2-oxo-N-(2,4,6-trifluorobenzyl)-1,2,3,4-tetrahydroquinazoline-7-carboxamide] was run?
A: < 1000 nM

Q: And the EC50 [2]?
A: < 1000 nM

Q: And the EC50 [3]?
A: < 1000 nM

Q: And the EC50 [4]?
A: < 1000 nM

Q: What about the EC50 [5] of the same molecule?
A: < 1000 nM

Q: What about the EC50 [6] of the same molecule?
A: < 1000 nM

Q: For `Cc1nccc(CN2C(=O)N(C)C(C)c3ccc(C(=O)NCc4c(F)cc(F)cc4F)cc32)c1F` (stereo not drawn) [Example 180, 1-((3-fluoro-2-methylpyridin-4-yl)methyl)-3,4-dimethyl-2-oxo-N-(2,4,6-trifluorobenzyl)-1,2,3,4-tetrahydroquinazoline-7-carboxamide], which EC50 [1] is on record?
A: < 1000 nM

Q: What about the EC50 [2] of the same molecule?
A: < 1000 nM

Q: And the EC50 [3]?
A: < 1000 nM

Q: What about the EC50 [4] of the same molecule?
A: < 1000 nM

Q: What about the EC50 [5] of the same molecule?
A: < 1000 nM

Q: What about the EC50 [6] of the same molecule?
A: < 1000 nM

Q: For `COc1cnc(C)c(F)c1CN1C(=O)N(C)[C@@H](C)c2ccc(C(=O)NCc3c(F)cc(F)cc3F)cc21` [Example 296, (S)-1-((3-fluoro-5-methoxy-2-methylpyridin-4-yl)methyl)-3,4-dimethyl-2-oxo-N-(2,4,6-trifluorobenzyl)-1,2,3,4-tetrahydroquinazoline-7-carboxamide], which EC50 [1] is on record?
A: < 1000 nM

Q: What about the EC50 [2] of the same molecule?
A: < 1000 nM

Q: And the EC50 [3]?
A: < 1000 nM

Q: What about the EC50 [4] of the same molecule?
A: < 1000 nM

Q: And the EC50 [5]?
A: < 1000 nM

Q: What about the EC50 [6] of the same molecule?
A: < 1000 nM

Q: How did the EC50 [1] turn out when `C[C@H]1c2ccc(C(=O)NCc3c(F)cc(F)cc3F)cc2N(Cc2c(F)cncc2Br)C(=O)N1C` [Example 232, (S)-1-((3-bromo-5-fluoropyridin-4-yl)methyl)-3,4-dimethyl-2-oxo-N-(2,4,6-trifluorobenzyl)-1,2,3,4-tetrahydroquinazoline-7-carboxamide] was run?
A: < 1000 nM

Q: And the EC50 [2]?
A: < 1000 nM

Q: What about the EC50 [3] of the same molecule?
A: < 1000 nM

Q: What about the EC50 [4] of the same molecule?
A: < 1000 nM

Q: And the EC50 [5]?
A: < 1000 nM

Q: What about the EC50 [6] of the same molecule?
A: < 1000 nM

Q: With `COc1ccc(F)c(CN2C(=O)N(C)[C@@H](C)c3ccc(C(=O)NCc4c(F)cc(F)cc4F)cc32)c1Cl` [Example 88, (S)-1-(2-Chloro-6-fluoro-3-methoxybenzyl)-3,4-dimethyl-2-oxo-N-(2,4,6-trifluorobenzyl)-1,2,3,4-tetrahydroquinazoline-7-carboxamide] as the molecule, how does the EC50 [1] read?
A: < 1000 nM

Q: And the EC50 [2]?
A: < 1000 nM

Q: What about the EC50 [3] of the same molecule?
A: < 1000 nM

Q: What about the EC50 [4] of the same molecule?
A: < 1000 nM

Q: What about the EC50 [5] of the same molecule?
A: < 1000 nM

Q: What about the EC50 [6] of the same molecule?
A: < 1000 nM

Q: How did the EC50 [1] turn out when `Cc1ccc(Cl)c(CN2C(=O)N(C)[C@@H](C)c3ccc(C(=O)NCc4c(F)cc(F)cc4F)cc32)c1F` [Example 169, (S)-1-(6-chloro-2-fluoro-3-methylbenzyl)-3,4-dimethyl-2-oxo-N-(2,4,6-trifluorobenzyl)-1,2,3,4-tetrahydroquinazoline-7-carboxamide] was run?
A: < 1000 nM

Q: And the EC50 [2]?
A: < 1000 nM

Q: What about the EC50 [3] of the same molecule?
A: < 1000 nM

Q: What about the EC50 [4] of the same molecule?
A: < 1000 nM

Q: And the EC50 [5]?
A: < 1000 nM

Q: And the EC50 [6]?
A: < 1000 nM

Q: What does the source list for `CC(=O)Nc1ccc(COC(=O)Oc2cc(F)c(CN3C(=O)N(C)[C@@H](C)c4ccc(C(=O)NCc5c(F)cc(F)cc5F)cc43)c(F)c2)cc1` [Example 85, (S)-4-Acetamidobenzyl-(4-((3,4-dimethyl-2-oxo-7-((2,4,6-trifluorobenzyl)carbamoyl)-3,4-dihydroquinazolin-1(2H)-yl)methyl)-3,5-difluorophenyl) carbonate]?
A: EC50 [1]: < 1000 nM; EC50 [2]: < 1000 nM; EC50 [3]: < 1000 nM; EC50 [4]: < 1000 nM; EC50 [5]: < 1000 nM; EC50 [6]: < 1000 nM

Q: With `C[C@H]1c2ccc(C(=O)NCc3c(F)cc(F)cc3F)cc2N(Cc2c(F)cccc2Cl)C(=O)N1C` (single isomer, unassigned) [Example 76] as the molecule, how does the EC50 [1] read?
A: < 1000 nM

Q: And the EC50 [2]?
A: < 1000 nM

Q: And the EC50 [3]?
A: < 1000 nM

Q: And the EC50 [4]?
A: < 1000 nM

Q: What about the EC50 [5] of the same molecule?
A: < 1000 nM

Q: What about the EC50 [6] of the same molecule?
A: < 1000 nM

Q: What does the source list for `C[C@H]1c2ccc(C(=O)NCc3c(F)cc(F)cc3F)cc2N(Cc2cc(OCCCO)cc(F)c2F)C(=O)N1C` [Example 283, (S)-1-(2,3-difluoro-5-(3-hydroxypropoxy)benzyl)-3,4-dimethyl-2-oxo-N-(2,4,6-trifluorobenzyl)-1,2,3,4-tetrahydroquinazoline-7-carboxamide]?
A: EC50 [1]: < 1000 nM; EC50 [2]: 1000 to 10000 nM; EC50 [3]: < 1000 nM; EC50 [4]: < 1000 nM; EC50 [5]: < 1000 nM; EC50 [6]: < 1000 nM

Q: With `C[C@H]1c2ccc(C(=O)NCc3c(F)cc(F)cc3F)cc2N(Cc2c(N)cccc2F)C(=O)N1C` [Example 182, (S)-1-(2-amino-6-fluorobenzyl)-3,4-dimethyl-2-oxo-N-(2,4,6-trifluorobenzyl)-1,2,3,4-tetrahydroquinazoline-7-carboxamide] as the molecule, how does the EC50 [1] read?
A: < 1000 nM

Q: And the EC50 [2]?
A: < 1000 nM

Q: What about the EC50 [3] of the same molecule?
A: < 1000 nM

Q: And the EC50 [4]?
A: < 1000 nM

Q: What about the EC50 [5] of the same molecule?
A: < 1000 nM

Q: And the EC50 [6]?
A: < 1000 nM

Q: With `Cc1nccc(CN2C(=O)N(C)[C@@H](C)c3ccc(C(=O)NCc4c(F)cc(F)cc4F)cc32)c1F` [Example 261, (S)-1-((3-fluoro-2-methylpyridin-4-yl)methyl)-3,4-dimethyl-2-oxo-N-(2,4,6-trifluorobenzyl)-1,2,3,4-tetrahydroquinazoline-7-carboxamide] as the molecule, how does the EC50 [1] read?
A: < 1000 nM

Q: What about the EC50 [2] of the same molecule?
A: < 1000 nM

Q: And the EC50 [3]?
A: < 1000 nM

Q: And the EC50 [4]?
A: < 1000 nM

Q: And the EC50 [5]?
A: < 1000 nM

Q: What about the EC50 [6] of the same molecule?
A: < 1000 nM
